Measurements taken from article PMC6315541, “Nile Tilapia Derived Antimicrobial Peptide TP4 Exerts Antineoplastic Activity Through Microtubule Disruption” (Marine Drugs, 2018).
Entries after “also recorded” stand apart in the source; their conditions may differ.

Key:
[1] = tested on: A549 cells; experiment: Cell viability (CellTiter-Glo ATP assay) in A549 cells; type: cell-based, human; conditions: 24 h; for relative ATP levels (cell viability): CellTiter-Glo ATP assay, luminescence, mean ± SD of three independent assays, n ≥ 5 wells per dose; for cytotoxicity to A549 cells (in words): doses 3.35-20.12 µM, ATP assay, Figure 6A
Experimental: (§1) Figure 6 Loss of cancer-killing ability in TP4 mutants. (A) Cell viability in A549 cells was determined by the adenosine triphosphate (ATP) assay following treatment with varying doses of TP4 and TP4 mutants for 24 h. Multiple wells were analyzed for each assay. Results represent the mean ± SD. Statistical comparisons between groups were performed using two-way ANOVA: a, not significant; b, p < 0.05; d, p < 0.001. Statistical analyses are shown in Supplementary Table S1. (B) Cells were stained for TP4 (WT panel), FITC (MT-1 to MT-6 panels), α-Tubulin, and F-actin. Hoechst33342 was used for nuclei staining. Boxed regions are magnified in the furthest right panels. […] Bar: 20 μm.
The A549 cell line (Bioresource Collection and Research Center (BCRC) 60074) was purchased from the BCRC and cultured according to BCRC recommendations. For the cell viability and transfection assay, 4–5 × 10^3 cells were seeded into the wells of a 96-well plate and cultured overnight. Cells were then treated according to the indicated doses and times. Cell viability was quantified using the CellTiter-Glo® Luminescent Cell Viability Assay kit (ATP assay) (Madison, WI, USA) as previously described. The luminescent signal was measured using a photometer (SpectraMax® i3, Molecular Devices, Wals, Austria).
For the multi-well based assay, cells were plated at least in quadruplicate. Data were collected from independently repeated experiments (N ≥ 3) and were analyzed by Prism5 software (GraphPad Inc., La Jolla, CA, USA). Statistical significance was determined by a two-tailed Student’s t-test or one-way/two-way analysis of variance (ANOVA) with a Bonferroni post hoc test. Differences were considered statistically significant at p < 0.05. […]
Supplementary Table S1. Cellular toxicit y of TP 4 to A549 cells was evaluated b y cell viability. Results of statis tical tests on data in Figu re 6A are shown. Multiple wells were anal yzed for each ex periment (n ≥ 5 wells per do se). Results represent the mean ± SD from three independent assays. Statistical comparisons between mock versus TP4 treatment groups were performed using two -way ANOVA anal ysis with Bonferroni post-hoc test: a, not signi ficant; b, P < 0.05; c, P < 0.01; d, P < 0.001. […]
(A-G) Th e helical projection plot and s tructural model o f TP4 (A) and TP4 variants (MT-1 to MT-6, B-G ). The helical proj ecti on was produced b y an online helical wheel projection program (http://rzlab.ucr.edu/scripts/wheel/wheel.cgi). Amino acid residues are numbered and each amino acid is connected with lines to indicate its relative position along the helix. The hydrophobic residues are shown as diamonds ; h ydrophilic residues are circles. Residues with negative charge are shown as trian gles and positively charged residues are pentagons. Hydrophobicity is color coded. The

[2] = tested on: microtubule network (α-Tubulin) in A549 cells; experiment: Immunocytochemistry of microtubule network and peptide uptake in A549 cells; type: cell-based, human; conditions: A549 cells; TP4 6.71 μM, 3 h; FITC-labeled mutants; Figure 6B
Experimental: To examine whether TP4 may affect microtubule dynamics, A549 cells were treated with TP4, and cytoskeletal elements were analyzed by immunocytochemistry (ICC). […] We then asked whether TP4 treatment may influence tubulin protein levels by performing Western blots on lysates from A549 cells that had been treated with vehicle or TP4. […] We next conducted a microtubule regrowth assay to further address whether TP4 may disrupt microtubule polymerization. TP4 was applied to A549 cells that had been treated with or without Nocodazole (20 μM) treatment for 6 h, which completely depolymerizes the microtubule network. The repolymerization of microtubules was then initialized by the addition of fresh recovery medium, and regrowth was analyzed by ICC.
While the reduced toxicity may result from impaired binding to tubulin, it is also possible that such effects may be caused by conformational changes in the TP4 mutants, see Supplementary Figure S1C,D, which prevent intracellular penetration. To test this possibility, ICC was conducted to evaluate the cellular localization and the effects on microtubules. […] For both Gly and Ala substitution mutants, FITC-labeled TP4 mutants were able to be taken up intracellularly, see Figure 6B, panels MT-1 to MT-6. However, the microtubule network was only affected in MT-1- and MT-4-treated cells and not the other mutant-treated groups, as shown in Figure 6B.
as §1
Cells were stained with TP4 (1:1000), FITC (1:500, ThermoFisher Scientific, clone 1F8-1E4), α-Tubulin (1:500), and appropriate Alexa Flour conjugated secondary antibody (1:500; ThermoFisher Scientific, Eugene, OR, USA). Hochest33342 was used for nuclear staining, and Alexa Fluor 647-conjugated phalloidin (1:200, Thermo Fisher Scientific, Eugene, OR, USA) was used to stain F-actin. For the confocal microscopic analysis, samples were mounted with fluorescent mounting medium (ProLong Gold Antifade Reagent, ThermoFisher Scientific, Eugene, OR, USA) and images were obtained with a FV3000 laser-scanning confocal microscope (Olympus), using a 60 × objective lens (Plapon 60 × OSC2, N.A. 1.4, oil) with the 4′,6-diamidino-2-phenylindole (DAPI) ([…]), green fluorescent protein (GFP) (EX 470, EM 525 for enhanced GFP (EGFP)), and Cy5 ([…]) emission filters. FV31S software (Olympus, Tokyo, Japan) was used for image acquisition.

Substance	relative ATP levels (cell viability) ([1]; 3.35 µM)	relative ATP levels (cell viability) ([1]; 5.03 µM)	relative ATP levels (cell viability) ([1]; 6.71 µM)	relative ATP levels (cell viability) ([1]; 20.12 µM)	cytotoxicity to A549 cells (in words) [1]	effect on microtubule network (α-Tubulin ICC) [2]
MT-4: TP4 mutant, Phe1 to Ala (AIHHIIGGLFSAGKAIHRLIRRRRR)	0.454±0.169	0.241±0.094	0.070±0.045	0.001±0.007	strongly cytotoxic	affected; also recorded: microtubule abnormalities were observed
MT-1: TP4 mutant, Phe1 to Gly (GIHHIIGGLFSAGKAIHRLIRRRRR)	0.931±0.160	1.044±0.280	0.852 ± 0.145	0.003±0.001	decreased cytotoxicity	affected; also recorded: microtubule abnormalities were observed
